Data taken from paper PMC4161441, “Unravelling the Multiple Functions of the Architecturally Intricate Streptococcus pneumoniae β-galactosidase, BgaA” (PLoS Pathogens, 2014).

How the values were obtained:
CBM71-2 [1] = target: T1, CBM71-2 (Streptococcus pneumoniae, UniProt Q8DQP4); experiment: UV difference spectroscopy; assay type: binding; details: 25 °C; too weak to quantify
T1 construct: gene bgaA; pET28-based expression in E. coli; exact borders not in text

CBM71-1 [2] = target: T2, CBM71-1 (Streptococcus pneumoniae, UniProt Q8DQP4); experiment: UV difference spectroscopy; assay type: binding; details: 25 °C; too weak to quantify
T2 construct: gene bgaA; pET28-based expression in E. coli; exact borders not in text

CBM71-1 [3] = target: T2, CBM71-1; experiment: isothermal titration calorimetry; assay type: binding; details: PBS, 25 °C
CBM71-2 [4] = target: T1, CBM71-2; experiment: isothermal titration calorimetry; assay type: binding; details: PBS, 25 °C
[5] = target: T3, BgaA catalytic region (GH2; SpBgaA) (Streptococcus pneumoniae, UniProt A0A0H2UP19); experiment: isothermal titration calorimetry; assay type: binding
T3 construct: N-terminal catalytic region, domains I-V (GH2 region printed as residues 138-993; SpBgaA146-990 in cell assay); pET28-based expression in E. coli; source strain and exact borders not in main text

[6] = target: T3, BgaA catalytic region (GH2; SpBgaA); experiment: steady-state kinetics, UV-visible spectrophotometry; apparent Km/Vmax against inhibitor concentration; assay type: biochemical

T2 sequence (Q8DQP4 entry or part of it): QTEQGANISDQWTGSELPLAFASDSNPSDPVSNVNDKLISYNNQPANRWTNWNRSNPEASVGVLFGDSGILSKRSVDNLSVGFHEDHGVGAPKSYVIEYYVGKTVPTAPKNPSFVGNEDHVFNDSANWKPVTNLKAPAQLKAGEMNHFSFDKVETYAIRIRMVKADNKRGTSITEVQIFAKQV
T1 sequence (Q8DQP4 entry or part of it): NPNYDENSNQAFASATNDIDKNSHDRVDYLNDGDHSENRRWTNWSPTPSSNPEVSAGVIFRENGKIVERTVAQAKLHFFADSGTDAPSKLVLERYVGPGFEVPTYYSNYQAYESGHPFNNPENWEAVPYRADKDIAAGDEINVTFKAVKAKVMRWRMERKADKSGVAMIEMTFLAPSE

SMILES | Kd (CBM71-1 [3]) [µM] | Kd (CBM71-2 [4]) [µM] | Ki [6] [µM] | further results
OC[C@H]1OC(O)[C@H](O)[C@@H](O)[C@H]1O (stereo partly drawn) [D-galactose] |  |  |  | UV difference spectroscopy (CBM71-2 [1]): For both CBMs, the binding to galactose was too weak to quantify; UV difference spectroscopy (CBM71-1 [2]): only D-galactose gave a signature UV difference spectrum consistent with sugar binding
CC(=O)N[C@H]1C(O)O[C@H](CO)[C@@H](O[C@@H]2O[C@H](CO)[C@H](O)[C@H](O)[C@H]2O)[C@@H]1O (stereo partly drawn) [LacNAc] | 251 | 247 |  | 
OC[C@H]1CNC[C@@H](O)[C@H]1O [galactoisofagomine] |  |  | 0.025 | Kd [5]: 26 nM
OC[C@H]1NC(O)[C@H](O)[C@@H](O)[C@H]1O (stereo partly drawn) [galactonojirimycin] |  |  | 33.9 | 
OC[C@H]1O[C@@H](O[C@H]2[C@H](O)[C@@H](O)C(O)O[C@@H]2CO)[C@H](O)[C@@H](O)[C@H]1O (stereo partly drawn) [lactose] | 368 | 378 |  | 
